Here are results for one molecule from patent US20170165286A1, “COMPOSITIONS AND METHODS FOR TREATING DIABETES AND LIVER DISEASES” (Cempra Pharmaceuticals, Inc., priority 2014, published 2017).

Entries after “also recorded” stand apart in the source; their conditions may differ.

Assay [1] has as its system BLM-induced pulmonary fibrosis model mice. Nature of the assay: Bleomycin-induced lung injury: lung histopathology (Masson's Trichrome, Ashcroft score, HE). It is filed as in vivo. How it is done:
Bleomycin-Induced Lung Injury. Lung inflammation is induced in female mice by a single intratracheal administration of bleomycin. Twenty mice are divided into two groups. From Day −2 to Day 6, one group is administered vehicle and the other is administered test drug, such as solithromycin orally at a dose of 100 mg/kg. It is to be understood herein that 100 mg/kg in mice is generally considered to be equivalent to a 450-500 mg, such as 480 mg, dose in humans. Animals are sacrificed on Day 7.
Pathogen-free 7 weeks old female C57BL/6J mice are obtained from CLEA Japan (Tokyo, Japan) and allowed to acclimate at least 6 days. On day 0, twenty mice are induced to develop pulmonary fibrosis by a single intratracheal administration of bleomycin sulphate (BLM, Nippon Kayaku, Japan) in 0.9% saline in a volume of 50 μL per animal using a Microsprayer® (Penn-Century, USA). Individual body weight is measured daily during the experiment period. Survival, clinical signs and behavior of mice is monitored daily.
Solithromycin Reduces Inflammation In Mice Caused By Bleomycin-Induced Lung Injury. […]
Histopathological Analyses. […] The degree of pulmonary fibrosis was evaluated using the Ashcroft score (4) for the quantitative histological analysis.

The subject of assay [2] is STAM mice. Description: STAM model: Sirius red staining, fibrosis area. It is filed as in vivo. Particulars: for Sirius red-positive area (% of area showing fibrosis): STAM mice liver. How it is done:
NASH-HCC (STAM™) Model. C57BL/6 (15-day-pregnant female) mice are obtained from Charles River Laboratories Japan (Kanagawa, Japan). Male pups are selected for the study. NASH is induced in male mice by a single subcutaneous injection of 200 μg streptozotocin (STZ, Sigma-Aldrich, USA) solution 2 days after birth, followed by feeding a HFD (57 kcal % fat, cat#: HFD32, CLEA Japan, Japan) beginning at 4 weeks of age. At 5 weeks of age, mice are divided into a control group and one or more treated group (generally 8 mice per group). Animals are sacrificed at 9 weeks of age, and biochemical, histological, and gene expression analyses are performed.
During weeks 5-9 (starting at day 35±2), test compound is administered (generally orally) at various doses diluted to 10 mL/kg and according to various dosing protocols to treatment groups (8 mice each) while a second group (8 mice) is administered vehicle only. Animals are sacrificed at 9 weeks.
To visualize collagen deposition (a measure of fibrosis), Bouin's fixed left lateral liver sections are stained using picro-Sirius red solution (Waldeck, Germany).
For quantitative analysis of fibrosis area, bright field images of Sirius red-stained sections are captured around the central vein using a digital camera (DFC280; Leica, Germany) at 200-fold magnification, and the positive areas in 5 fields/section are measured using ImageJ software (National Institute of Health, USA). For quantitative analysis of inflammation area, bright field images of F4/80-immunostained sections are captured around the central vein using a digital camera (DFC280; Leica, Germany) at 200-fold magnification, and the positive areas in 5 fields/section are measured using ImageJ software (National Institute of Health, USA).
Illustrative dose response test groups. Group 1-Normal. Eight normal mice are fed with a normal diet ad libitum without any treatment until 9 weeks of age. Group 2-Vehicle. Eight NASH mice are orally administered vehicle (0.5% w/v methylcellulose+0.2% Tween®80) in a volume of 10 mL/kg twice daily from 5 to 9 week of age. Group 3-solithromycin 5 mg/kg. Eight NASH mice are orally administered vehicle supplemented with solithromycin at a dose of 5 mg/kg in the morning and the vehicle in the evening (5 mg/kg/day) from 5 to 9 weeks of age. Group 4-solithromycin 10 mg/kg. Eight NASH mice are orally administered vehicle supplemented with solithromycin at a dose of 10 mg/kg twice daily (20 mg/kg/day) from 5 to 9 weeks of age. Group 5-solithromycin 25 mg/kg. Eight NASH mice are orally administered vehicle supplemented with solithromycin at a dose of 25 mg/kg twice daily (50 mg/kg/day) from 5 to 9 weeks of age. Group 6-solithromycin 50 mg/kg. Eight NASH mice are orally administered vehicle supplemented with solithromycin at a dose of 50 mg/kg once daily (50 mg/kg/day) from 5 to 9 weeks of age.

For `CC[C@H]1OC(=O)[C@@](C)(F)C(=O)[C@H](C)[C@@H](O[C@@H]2O[C@H](C)C[C@H](N(C)C)[C@H]2O)[C@](C)(OC)C[C@@H](C)C(=O)[C@H](C)[C@H]2N(CCCCn3cc(-c4cccc(N)c4)nn3)C(=O)O[C@]12C` [solithromycin], in assay [1], the “HE staining: alveolar wall thickening, diffuse alveolar destruction, inflammatory cell infiltration vs vehicle” value is reported as “no obvious differences”. The same molecule displayed an Ashcroft score in assay [1] (vehicle 1.6±0.2) of 1.4±0.5. The “Sirius red-positive area (% of area showing fibrosis)” value in assay [2] (5 mg/kg) was “no statistically significant differences”; in assay [2] (5 mg/kg, listed as SOLI), 0.85 ± 0.28%; in assay [2] (10 mg/kg), “tended to decrease”; in assay [2] (10 mg/kg, listed as SOLI), 0.72 ± 0.27%; in assay [2] (25 mg/kg) it was “significantly decreased; also recorded: Statistically significant reduced fibrosis”; in assay [2] (25 mg/kg, listed as SOLI) it was 0.65 ± 0.27 %. In addition, the “Fibrosis area (Sirius red-positive area) compared to vehicle group” value in assay [2] (STAM mice, Group 6 (50 mg/kg q.d.)) is on record as “significantly decreased”.
